Measurements: PubChem BioAssay AID1963976 (Molecular Pharmacology Branch, DTP, NCI, 2024)
pIC50: −log10 of the molar value.

System: 435261-313-R-J1-PDC tumor spheroid viability
Assay: Anticancer human tumor 435261-313-R-J1-PDC patient-derived colon adenocarcinoma cell line growth inhibition [PI3K]
Settings: spheroids with HUVEC and MSC; for pIC50: curve of first compound; for viability, T/C: stronger effect = lower value
Summary of the method: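 Tumor cells grown as multi-cell spheroids with HUVEC endothelial cells and MSC fibroblast-like stroma were treated with targeted agents combined with inavolisib, alpelisib, duvelisib or copanlisib. Doses fell in half-log steps from near clinical Cmax, else from 10 microM. Viability was measured.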

[1] = second compound 0.0316 µM, first compound 0.0316 µM
[2] = second compound 0.0316 µM, first compound 0.1 µM
[3] = second compound 0.0316 µM, first compound 0.316 µM
[4] = second compound 0.0316 µM, first compound 1 µM
[5] = second compound 0.0316 µM, first compound 3.16 µM
[6] = second compound 0.0316 µM, first compound 10 µM
[7] = second compound 0.1 µM, first compound 0.0316 µM
[8] = second compound 0.1 µM, first compound 0.1 µM
[9] = second compound 0.1 µM, first compound 0.316 µM
[10] = second compound 0.1 µM, first compound 1 µM
[11] = second compound 0.1 µM, first compound 3.16 µM
[12] = second compound 0.1 µM, first compound 10 µM
[13] = second compound 0.316 µM, first compound 0.0316 µM
[14] = second compound 0.316 µM, first compound 0.1 µM
[15] = second compound 0.316 µM, first compound 0.316 µM
[16] = second compound 0.316 µM, first compound 1 µM
[17] = second compound 0.316 µM, first compound 3.16 µM
[18] = second compound 0.316 µM, first compound 10 µM
[19] = second compound 1 µM, first compound 0.0316 µM
[20] = second compound 1 µM, first compound 0.1 µM
[21] = second compound 1 µM, first compound 0.316 µM
[22] = second compound 1 µM, first compound 1 µM
[23] = second compound 1 µM, first compound 3.16 µM
[24] = second compound 1 µM, first compound 10 µM
[25] = second compound 3.16 µM, first compound 0.0316 µM
[26] = second compound 3.16 µM, first compound 0.1 µM
[27] = second compound 3.16 µM, first compound 0.316 µM
[28] = second compound 3.16 µM, first compound 1 µM
[29] = second compound 3.16 µM, first compound 3.16 µM
[30] = second compound 3.16 µM, first compound 10 µM
[31] = second compound 10 µM, first compound 0.0316 µM
[32] = second compound 10 µM, first compound 0.1 µM
[33] = second compound 10 µM, first compound 0.316 µM
[34] = second compound 10 µM, first compound 1 µM
[35] = second compound 10 µM, first compound 3.16 µM
[36] = second compound 10 µM, first compound 10 µM
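Further: spheroids exposed to compounds for 7 days.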

## C#Cc1c(F)ccc2cc(O)cc(-c3ncc4c(N5CC6CCC(C5)N6)nc(OCC56CCCN5CC(F)C6)nc4c3F)c12 (stereo unspecified) + Cc1nc(NC(=O)N2CCCC2C(N)=O)sc1-c1ccnc(C(C)(C)C(F)(F)F)c1
Second compound 0.0316 µM
  pIC50: 5.26
Second compound 0.1 µM
  pIC50: 5.67
Second compound 0.316 µM
  pIC50: 5.97
Second compound 1 µM
  pIC50: > 7.50
Second compound 3.16 µM
  pIC50: > 7.50
Second compound 10 µM
  pIC50: > 7.50
[1]
  viability, T/C: 73.7%
[2]
  viability, T/C: 78%
[3]
  viability, T/C: 102%
[4]
  viability, T/C: 49%
[5]
  viability, T/C: 70.5%
[6]
  viability, T/C: 35.6%
[7]
  viability, T/C: 61.1%
[8]
  viability, T/C: 77%
[9]
  viability, T/C: 98.3%
[10]
  viability, T/C: 58.2%
[11]
  viability, T/C: 43.8%
[12]
  viability, T/C: 18.4%
[13]
  viability, T/C: 39.2%
[14]
  viability, T/C: 67.5%
[15]
  viability, T/C: 46.2%
[16]
  viability, T/C: 51.7%
[17]
  viability, T/C: 27.1%
[18]
  viability, T/C: 12.6%
[19]
  viability, T/C: 23.7%
[20]
  viability, T/C: 27%
[21]
  viability, T/C: 28.4%
[22]
  viability, T/C: 27.9%
[23]
  viability, T/C: 13.9%
[24]
  viability, T/C: 7.05%
[25]
  viability, T/C: 17.1%
[26]
  viability, T/C: 19.7%
[27]
  viability, T/C: 11.3%
[28]
  viability, T/C: 8.79%
[29]
  viability, T/C: 6.05%
[30]
  viability, T/C: 1.23%
[31]
  viability, T/C: 9.19%
[32]
  viability, T/C: 6.14%
[33]
  viability, T/C: 3.65%
[34]
  viability, T/C: 3.37%
[35]
  viability, T/C: 2.05%
[36]
  viability, T/C: 0.32%

## C=CC(=O)N1CCN(c2nc(=O)n(-c3c(C)ccnc3C(C)C)c3nc(-c4c(O)cccc4F)c(F)cc23)C(C)C1 (stereo unspecified) + COc1c(OCCCN2CCOCC2)ccc2c3n(c(=NC(=O)c4cnc(N)nc4)nc12)CCN3
Second compound 0.00316 µM
  pIC50: < 5.00
Second compound 0.01 µM
  pIC50: > 7.50
Second compound 0.0316 µM
  pIC50: > 7.50
Second compound 0.1 µM
  pIC50: > 7.50
Second compound 0.316 µM
  pIC50: > 7.50
Second compound 1 µM
  pIC50: > 7.50
Second compound 0.00316 µM, first compound 0.0316 µM
  viability, T/C: 86.8%
Second compound 0.00316 µM, first compound 0.1 µM
  viability, T/C: 78.2%
Second compound 0.00316 µM, first compound 0.316 µM
  viability, T/C: 99%
Second compound 0.00316 µM, first compound 1 µM
  viability, T/C: 63.5%
Second compound 0.00316 µM, first compound 3.16 µM
  viability, T/C: 101%
Second compound 0.00316 µM, first compound 10 µM
  viability, T/C: 97.9%
Second compound 0.01 µM, first compound 0.0316 µM
  viability, T/C: 45.5%
Second compound 0.01 µM, first compound 0.1 µM
  viability, T/C: 56.6%
Second compound 0.01 µM, first compound 0.316 µM
  viability, T/C: 47.7%
Second compound 0.01 µM, first compound 1 µM
  viability, T/C: 64.7%
Second compound 0.01 µM, first compound 3.16 µM
  viability, T/C: 60.2%
Second compound 0.01 µM, first compound 10 µM
  viability, T/C: 85%
[1]
  viability, T/C: 25.5%
[2]
  viability, T/C: 36.7%
[3]
  viability, T/C: 29%
[4]
  viability, T/C: 30.6%
[5]
  viability, T/C: 26.3%
[6]
  viability, T/C: 30.6%
[7]
  viability, T/C: 15.9%
[8]
  viability, T/C: 16.5%
[9]
  viability, T/C: 17.5%
[10]
  viability, T/C: 18.7%
[11]
  viability, T/C: 15.4%
[12]
  viability, T/C: 16.1%
[13]
  viability, T/C: 8.2%
[14]
  viability, T/C: 8.82%
[15]
  viability, T/C: 7.92%
[16]
  viability, T/C: 8.17%
[17]
  viability, T/C: 6.9%
[18]
  viability, T/C: 5.27%
[19]
  viability, T/C: 4.55%
[20]
  viability, T/C: 3.78%
[21]
  viability, T/C: 3.56%
[22]
  viability, T/C: 3.98%
[23]
  viability, T/C: 3.29%
[24]
  viability, T/C: 2.04%

## CNC(=O)c1ccc(N2C(=S)N(c3ccc(C#N)c(C(F)(F)F)c3)C(=O)C2(C)C)cc1F + Cc1nc(NC(=O)N2CCCC2C(N)=O)sc1-c1ccnc(C(C)(C)C(F)(F)F)c1
Second compound 0.0316 µM
  pIC50: < 5.00
Second compound 0.1 µM
  pIC50: < 5.00
Second compound 0.316 µM
  pIC50: > 7.50
Second compound 1 µM
  pIC50: > 7.50
Second compound 3.16 µM
  pIC50: > 7.50
Second compound 10 µM
  pIC50: > 7.50
[1]
  viability, T/C: 81.8%
[2]
  viability, T/C: 78.2%
[3]
  viability, T/C: 103%
[4]
  viability, T/C: 75%
[5]
  viability, T/C: 93.5%
[6]
  viability, T/C: 84.2%
[7]
  viability, T/C: 70.8%
[8]
  viability, T/C: 52.1%
[9]
  viability, T/C: 71.5%
[10]
  viability, T/C: 61.4%
[11]
  viability, T/C: 83.7%
[12]
  viability, T/C: 77.1%
[13]
  viability, T/C: 27.3%
[14]
  viability, T/C: 59.3%
[15]
  viability, T/C: 46.2%
[16]
  viability, T/C: 61.7%
[17]
  viability, T/C: 75.8%
[18]
  viability, T/C: 45.7%
[19]
  viability, T/C: 26.3%
[20]
  viability, T/C: 30.4%
[21]
  viability, T/C: 24.8%
[22]
  viability, T/C: 37.4%
[23]
  viability, T/C: 23.9%
[24]
  viability, T/C: 25.1%
[25]
  viability, T/C: 18.9%
[26]
  viability, T/C: 17.4%
[27]
  viability, T/C: 12.7%
[28]
  viability, T/C: 17.8%
[29]
  viability, T/C: 14%
[30]
  viability, T/C: 9.85%
[31]
  viability, T/C: 9.39%
[32]
  viability, T/C: 8.74%
[33]
  viability, T/C: 8.22%
[34]
  viability, T/C: 8.91%
[35]
  viability, T/C: 8.18%
[36]
  viability, T/C: 5.56%
